Laboratory results reported in patent US20050090398A1, “Novel tetrazole derivative useful as herbicides” (priority 2002, published 2005).

Assays:
Echinochloa crusgalli = experiment: Test of post-emergence foliage treatment against field weeds; assay type: in vivo; settings: post-emergence foliage treatment at 2-leaf stage, 2.0 kg/ha effective component, examined 3 weeks after treatment
Method: (§1) Preparation of formulation of the active compound • Carrier: Acetone 5 parts by weight • Emulsifier: Benzyloxy polyglycol ether 1 part by weight
(§2) A formulation of an active substance is obtained as an emulsifiable concentrate by mixing 1 part by weight of the active compound with the above-mentioned amount of the carrier and emulsifier. A prescribed amount of the formulation is diluted with water.
(§3) In a green house, seeds of Echinochloa crusgalli, Setaria viridis, Amaranthus retro-flexus and Polygonum were sown in a 120 cm^2 pot filled with field soil and covered with soil. 10 days after the sowing and soil covering (weeds were 2-leaf stage in average) a diluted solution of the prescribed chemical amount prepared in the same manner as in the above-mentioned Test Example 1 was spread uniformly on the foliage of the test plants in each test pot. The herbicidal effect was examined 3 weeks after the treatment.

Setaria viridis = experiment: as above; assay type: in vivo; settings: post-emergence foliage treatment at 2-leaf stage, 2.0 kg/ha effective component, examined 3 weeks after treatment
Method: as §1, §2, §3

Polygonum = experiment: as above; assay type: in vivo; settings: post-emergence foliage treatment at 2-leaf stage, 2.0 kg/ha effective component, examined 3 weeks after treatment
Method: as §1, §2, §3

Amaranthus retroflexus = experiment: as above; assay type: in vivo; settings: post-emergence foliage treatment at 2-leaf stage, 2.0 kg/ha effective component, examined 3 weeks after treatment
Method: as §1, §2, §3

paddy field weeds = experiment: Test for herbicidal effect against paddy field weeds; assay type: in vivo; settings: 0.25 kg/ha active component, applied to water surface 5 days after rice transplantation, examined after 3 weeks
Method: as §1, §2
(§4) In a green house 3 seedlings of paddy rice (variety: Nihonbare) of 2.5 leaf stage (15 cm tall) were transplanted in a 500 cm^2 pot filled with paddy field soil. Then seeds or tubers of Echinochloa crusgalli, Cyperus difformis L., Scirpus juncoides Roxburgh, Monochoria vaginalis Presl, broad-leaved weeds (Lindernia Procumbens Philcox, Rotala indica Koehne, Elatine triandra Schk, Ammannia multiflora Roxb., Dopatrium junceum Hammilt etc.), Cyperus serotinus Rottboel and Sagittaria pygmaea Miq were inoculated and water was poured to a depth of about 2-3 cm. 5 days after the rice transplantation a prescribed, diluted solution of each formulation of active compound prepared according to the aforementioned preparation method was applied to the surface of water. After the treatment the water depth of 3 cm was maintained and the herbicidal effect was examined after 3 weeks from the treatment. The herbicidal effect was rated 100% in the case of complete death and as 0% in the case of no herbicidal effect.

transplanted paddy rice = experiment: Paddy field test: safety to transplanted paddy rice; assay type: in vivo, paddy rice (variety: Nihonbare); settings: 0.25 kg/ha active component, applied to water surface 5 days after rice transplantation, examined after 3 weeks
Method: as §1, §2, §4

## O=C1CCCC(Cl)=C1C(=O)c1ccc(Cl)c(OCCn2cnnn2)c1Cl
other
  melting point: 122 to 124 °C

## O=C1CCCC(Sc2ccccc2)=C1C(=O)c1ccc(Cl)c(OCCn2cnnn2)c1Cl
other
  melting point: 64 to 70 °C

## O=C1CCCC(=O)C1C(=O)c1ccc(Cl)c(OCCn2cnnn2)c1Cl [compound 212]
Echinochloa crusgalli
  herbicidal activity against Echinochloa crusgalli: 90%
Setaria viridis
  herbicidal activity against Setaria viridis: 90%
Polygonum
  herbicidal activity against Polygonum: 90%
Amaranthus retroflexus
  herbicidal activity against Amaranthus retroflexus: 90%

## CC1(C)CC(=O)C(C(=O)c2ccc(Cl)c(OCCn3cnnn3)c2Cl)C(=O)C1 [compound 213]
Echinochloa crusgalli
  herbicidal activity against Echinochloa crusgalli: 90%
Setaria viridis
  herbicidal activity against Setaria viridis: 90%
Polygonum
  herbicidal activity against Polygonum: 90%
Amaranthus retroflexus
  herbicidal activity against Amaranthus retroflexus: 90%

## CC1CC(=O)C(C(=O)c2ccc(Cl)c(OCCn3cnnn3)c2Cl)C(=O)C1 (centres unmarked) [compound 215]
Echinochloa crusgalli
  herbicidal activity against Echinochloa crusgalli: 90%
Setaria viridis
  herbicidal activity against Setaria viridis: 90%
Polygonum
  herbicidal activity against Polygonum: 90%
Amaranthus retroflexus
  herbicidal activity against Amaranthus retroflexus: 90%

## O=C(c1ccc(Cl)c(OCCn2cnnn2)c1Cl)C1C(=O)C2CCC(C2)C1=O (centres unmarked) [compound 217]
Paddy field weeds
  herbicidal effect against paddy field weeds: sufficient herbicidal effect
Transplanted paddy rice
  safety to the transplanted paddy rice: safety to the transplanted paddy rice

## O=C1CCCC(Sc2ccccc2)=C1C(=O)c1ccc(Cl)c(OCCn2cnnn2)c1Cl [compound 219]
Paddy field weeds
  herbicidal effect against paddy field weeds: sufficient herbicidal effect
Transplanted paddy rice
  safety to the transplanted paddy rice: safety to the transplanted paddy rice

## O=C1CCCC(Cl)=C1C(=O)c1ccc(Cl)c(OCCn2cnnn2)c1Cl [compound 258]
Echinochloa crusgalli
  herbicidal activity against Echinochloa crusgalli: 90%
Setaria viridis
  herbicidal activity against Setaria viridis: 90%
Polygonum
  herbicidal activity against Polygonum: 90%
Amaranthus retroflexus
  herbicidal activity against Amaranthus retroflexus: 90%

## CCn1ncc(C(=O)c2ccc(Cl)c(OCCn3cnnn3)c2Cl)c1O [compound 272]
Echinochloa crusgalli
  herbicidal activity against Echinochloa crusgalli: 90%
Setaria viridis
  herbicidal activity against Setaria viridis: 90%
Polygonum
  herbicidal activity against Polygonum: 90%
Amaranthus retroflexus
  herbicidal activity against Amaranthus retroflexus: 90%

## Cc1nnnn1CCOc1c(Cl)ccc(C(=O)C2C(=O)CCCC2=O)c1Cl [compound 275]
Echinochloa crusgalli
  herbicidal activity against Echinochloa crusgalli: 90%
Setaria viridis
  herbicidal activity against Setaria viridis: 90%
Polygonum
  herbicidal activity against Polygonum: 90%
Amaranthus retroflexus
  herbicidal activity against Amaranthus retroflexus: 90%

## CS(=O)(=O)c1ccc(C(=O)C2C(=O)CCCC2=O)c(Cl)c1Cn1cnnn1 [compound 495]
Echinochloa crusgalli
  herbicidal activity against Echinochloa crusgalli: 90%
Setaria viridis
  herbicidal activity against Setaria viridis: 90%
Polygonum
  herbicidal activity against Polygonum: 90%
Amaranthus retroflexus
  herbicidal activity against Amaranthus retroflexus: 90%

## Cc1nnnn1Cc1c(S(C)(=O)=O)ccc(C(=O)C2C(=O)CCCC2=O)c1Cl [compound 558]
Paddy field weeds
  herbicidal effect against paddy field weeds: sufficient herbicidal effect
Transplanted paddy rice
  safety to the transplanted paddy rice: safety to the transplanted paddy rice

## CSc1nnnn1Cc1c(S(C)(=O)=O)ccc(C(=O)C2C(=O)CCCC2=O)c1Cl [compound 650]
Echinochloa crusgalli
  herbicidal activity against Echinochloa crusgalli: 90%
Setaria viridis
  herbicidal activity against Setaria viridis: 90%
Polygonum
  herbicidal activity against Polygonum: 90%
Amaranthus retroflexus
  herbicidal activity against Amaranthus retroflexus: 90%

## CS(=O)(=O)c1ccc(C(=O)C2C(=O)CCCC2=O)c(Cl)c1OCCn1cnnn1 [compound 715]
Echinochloa crusgalli
  herbicidal activity against Echinochloa crusgalli: 90%
Setaria viridis
  herbicidal activity against Setaria viridis: 90%
Polygonum
  herbicidal activity against Polygonum: 90%
Amaranthus retroflexus
  herbicidal activity against Amaranthus retroflexus: 90%

## O=C1CCCC(=O)C1C(=O)c1ccc(Br)c(OCCn2cnnn2)c1Br [compound 1234]
Echinochloa crusgalli
  herbicidal activity against Echinochloa crusgalli: 90%
Setaria viridis
  herbicidal activity against Setaria viridis: 90%
Polygonum
  herbicidal activity against Polygonum: 90%
Amaranthus retroflexus
  herbicidal activity against Amaranthus retroflexus: 90%

## O=C(c1ccc(Br)c(OCCn2cnnn2)c1Br)C1C(=O)C2CCC(C2)C1=O (centres unmarked) [compound 1239]
Echinochloa crusgalli
  herbicidal activity against Echinochloa crusgalli: 90%
Setaria viridis
  herbicidal activity against Setaria viridis: 90%
Polygonum
  herbicidal activity against Polygonum: 90%
Amaranthus retroflexus
  herbicidal activity against Amaranthus retroflexus: 90%

## CCn1ncc(C(=O)c2ccc(Br)c(OCCn3cnnn3)c2C)c1O [compound 1593]
Echinochloa crusgalli
  herbicidal activity against Echinochloa crusgalli: 90%
Setaria viridis
  herbicidal activity against Setaria viridis: 90%
Polygonum
  herbicidal activity against Polygonum: 90%
Amaranthus retroflexus
  herbicidal activity against Amaranthus retroflexus: 90%

## CCn1ncc(C(=O)c2ccc([N+](=O)[O-])c(OCCn3cnnn3)c2C)c1O [compound 1693]
Echinochloa crusgalli
  herbicidal activity against Echinochloa crusgalli: 90%
Setaria viridis
  herbicidal activity against Setaria viridis: 90%
Polygonum
  herbicidal activity against Polygonum: 90%
Amaranthus retroflexus
  herbicidal activity against Amaranthus retroflexus: 90%

## O=C1CCCC(=O)C1C(=O)c1ccc(Cl)c(OCCn2ncnn2)c1Cl [compound 2017]
Echinochloa crusgalli
  herbicidal activity against Echinochloa crusgalli: 90%
Setaria viridis
  herbicidal activity against Setaria viridis: 90%
Polygonum
  herbicidal activity against Polygonum: 90%
Amaranthus retroflexus
  herbicidal activity against Amaranthus retroflexus: 90%

## O=C(c1ccc(Cl)c(OCCn2ncnn2)c1Cl)C1C(=O)C2CCC(C2)C1=O (centres unmarked) [compound 2022]
Echinochloa crusgalli
  herbicidal activity against Echinochloa crusgalli: 90%
Setaria viridis
  herbicidal activity against Setaria viridis: 90%
Polygonum
  herbicidal activity against Polygonum: 90%
Amaranthus retroflexus
  herbicidal activity against Amaranthus retroflexus: 90%

## O=C1CCCC(Sc2ccccc2)=C1C(=O)c1ccc(Cl)c(OCCn2ncnn2)c1Cl [compound 2024]
Paddy field weeds
  herbicidal effect against paddy field weeds: sufficient herbicidal effect
Transplanted paddy rice
  safety to the transplanted paddy rice: safety to the transplanted paddy rice

## O=C1CCCC(Cl)=C1C(=O)c1ccc(Cl)c(OCCn2ncnn2)c1Cl [compound 2063]
Echinochloa crusgalli
  herbicidal activity against Echinochloa crusgalli: 90%
Setaria viridis
  herbicidal activity against Setaria viridis: 90%
Polygonum
  herbicidal activity against Polygonum: 90%
Amaranthus retroflexus
  herbicidal activity against Amaranthus retroflexus: 90%

## CCn1ncc(C(=O)c2ccc(Cl)c(OCCn3ncnn3)c2Cl)c1O [compound 2077]
Echinochloa crusgalli
  herbicidal activity against Echinochloa crusgalli: 90%
Setaria viridis
  herbicidal activity against Setaria viridis: 90%
Polygonum
  herbicidal activity against Polygonum: 90%
Amaranthus retroflexus
  herbicidal activity against Amaranthus retroflexus: 90%

## Cc1nnn(CCOc2c(Cl)ccc(C(=O)C3C(=O)CCCC3=O)c2Cl)n1 [compound 2080]
Echinochloa crusgalli
  herbicidal activity against Echinochloa crusgalli: 90%
Setaria viridis
  herbicidal activity against Setaria viridis: 90%
Polygonum
  herbicidal activity against Polygonum: 90%
Amaranthus retroflexus
  herbicidal activity against Amaranthus retroflexus: 90%

## Cc1nnn(CCOc2c(Cl)ccc(C(=O)C3C(=O)CC(C)(C)CC3=O)c2Cl)n1 [compound 2081]
Echinochloa crusgalli
  herbicidal activity against Echinochloa crusgalli: 90%
Setaria viridis
  herbicidal activity against Setaria viridis: 90%
Polygonum
  herbicidal activity against Polygonum: 90%
Amaranthus retroflexus
  herbicidal activity against Amaranthus retroflexus: 90%

## CS(=O)(=O)c1ccc(C(=O)C2C(=O)CCCC2=O)c(Cl)c1Cn1ncnn1 [compound 2301]
Echinochloa crusgalli
  herbicidal activity against Echinochloa crusgalli: 90%
Setaria viridis
  herbicidal activity against Setaria viridis: 90%
Polygonum
  herbicidal activity against Polygonum: 90%
Amaranthus retroflexus
  herbicidal activity against Amaranthus retroflexus: 90%

## Cc1ccc(SC2=C(C(=O)c3ccc(S(C)(=O)=O)c(Cn4ncnn4)c3Cl)C(=O)CCC2)cc1 [compound 2329]
Paddy field weeds
  herbicidal effect against paddy field weeds: sufficient herbicidal effect
Transplanted paddy rice
  safety to the transplanted paddy rice: safety to the transplanted paddy rice

## Cc1cccc(C)c1SC1=C(C(=O)c2ccc(S(C)(=O)=O)c(Cn3ncnn3)c2Cl)C(=O)CCC1 [compound 2335]
Paddy field weeds
  herbicidal effect against paddy field weeds: sufficient herbicidal effect
Transplanted paddy rice
  safety to the transplanted paddy rice: safety to the transplanted paddy rice

## CS(=O)(=O)c1ccc(C(=O)C2=C(Cl)CCCC2=O)c(Cl)c1Cn1ncnn1 [compound 2347]
Echinochloa crusgalli
  herbicidal activity against Echinochloa crusgalli: 90%
Setaria viridis
  herbicidal activity against Setaria viridis: 90%
Polygonum
  herbicidal activity against Polygonum: 90%
Amaranthus retroflexus
  herbicidal activity against Amaranthus retroflexus: 90%

## Cc1nnn(Cc2c(S(C)(=O)=O)ccc(C(=O)C3C(=O)CCCC3=O)c2Cl)n1 [compound 2364]
Paddy field weeds
  herbicidal effect against paddy field weeds: sufficient herbicidal effect
Echinochloa crusgalli
  herbicidal activity against Echinochloa crusgalli: 90%
Setaria viridis
  herbicidal activity against Setaria viridis: 90%
Polygonum
  herbicidal activity against Polygonum: 90%
Amaranthus retroflexus
  herbicidal activity against Amaranthus retroflexus: 90%
Transplanted paddy rice
  safety to the transplanted paddy rice: safety to the transplanted paddy rice

## CS(=O)(=O)c1ccc(C(=O)C2C(=O)CCCC2=O)c(Cl)c1OCCn1ncnn1 [compound 2521]
Echinochloa crusgalli
  herbicidal activity against Echinochloa crusgalli: 90%
Setaria viridis
  herbicidal activity against Setaria viridis: 90%
Polygonum
  herbicidal activity against Polygonum: 90%
Amaranthus retroflexus
  herbicidal activity against Amaranthus retroflexus: 90%

## O=C1CCCC(=O)C1C(=O)c1ccc(Br)c(OCCn2ncnn2)c1Br [compound 3038]
Echinochloa crusgalli
  herbicidal activity against Echinochloa crusgalli: 90%
Setaria viridis
  herbicidal activity against Setaria viridis: 90%
Polygonum
  herbicidal activity against Polygonum: 90%
Amaranthus retroflexus
  herbicidal activity against Amaranthus retroflexus: 90%

## O=C(c1ccc(Br)c(OCCn2ncnn2)c1Br)C1C(=O)C2CCC(C2)C1=O (centres unmarked) [compound 3043]
Echinochloa crusgalli
  herbicidal activity against Echinochloa crusgalli: 90%
Setaria viridis
  herbicidal activity against Setaria viridis: 90%
Polygonum
  herbicidal activity against Polygonum: 90%
Amaranthus retroflexus
  herbicidal activity against Amaranthus retroflexus: 90%
